Experimental data: US10159634B2, “Compositions and methods for inhibiting hair growth” (priority 2009, dated 2018)

Tested on: C3H mice
Assay: Telogen Conversion Assay
Assay type: in vivo
Details: for Average Grades: average of 7 mice, visual grade 0 (pink skin) to 4 (full anagen), topical; for hair regrowth (regrowth score, FIG. 1): applied daily, week 3 and week 4, at the appropriate dose-level, compared to the control group; for hair growth (average grade): grades of 7 mice after 23 days, example written in present tense
Description: FP receptor antagonists are tested for their potential to […] using the Telogen Conversion Assay. The Telogen Conversion Assay measures the potential of a FP receptor antagonist to inhibit the conversion of mice in the resting stage of the hair growth cycle (“telogen”), to the growth stage of the hair growth cycle (“anagen”), and to assess the rate of anagen growth.
Without intending to be limited by theory, there are three principal phases of the hair growth cycle: anagen, catagen, and telogen. It is believed that there is a longer telogen period in C3H mice (Harlan Sprague Dawley, Inc., Indianapolis, Ind.) from approximately 40 days of age until about 75 days of age, when hair growth is synchronized. It is believed that after 75 days of age, hair growth is no longer synchronized. Wherein about 40 day-old mice with dark fur (brown or black) are used in hair growth experiments, melanogenesis occurs along with hair (fur) growth wherein the topical application of hair growth inducers is evaluated. The Telogen Conversion Assay herein is used to screen FP receptor antagonists for potential hair growth by measuring melanogenesis and/or inhibition of expected hair growth.
Three groups of 44 day-old C3H mice are used: a vehicle control group, a positive control group, and a test FP receptor antagonist group, wherein the test FP receptor antagonist group is administered a FP receptor antagonist F used in the method of this invention. The length of the assay is typically 24 days with 15 treatment days (wherein the treatment days occur Mondays through Fridays). Day 1 is the first day of treatment. Typical dosage concentrations are set forth in Table 1, however the skilled artisan will readily understand that such concentrations may be modified.
The mice are treated topically Monday through Friday on their lower back (base of tail to the lower rib). A pipette and tip are used to deliver 400 μl to each mouse's back. The 400 μL application is applied slowly while moving hair on the mouse to allow the application to reach the skin.
While each treatment is being applied to the mouse topically, a visual grade of from 0 to 4 will be given to the skin color in the application area of each animal. As a mouse converts from telogen to anagen, its skin color will become more bluish-black.

Compound: COC(=O)CCC/C=C\CC1C(/C=C/[C@H](O)C2Cc3ccccc3C2)[C@@H](F)C[C@@H]1O (stereo partly drawn) [Example 2]
- Average Grades (23 Days): 0.1
- hair regrowth (regrowth score, FIG. 1): inhibited hair regrowth

Compound: CC(C)OC(=O)CCC/C=C\CC1C(/C=C/[C@H](O)C2Cc3ccccc3C2)[C@@H](F)C[C@@H]1O (stereo partly drawn) [Example 4]
- hair growth (average grade): significantly reduces hair growth

Compound: O=C(O)CCC/C=C\CC1C(/C=C/[C@H](O)C2Cc3ccccc3C2)[C@@H](F)C[C@@H]1O (stereo partly drawn) [Example 1]
- Average Grades (23 Days): 0.4
- Average Grades (25 Days): 0.1
- Average Grades (26 Days): 0.7

Compound: Ile-Leu-Gly-His-(citrulline)-Asp-Tyr-Lys [Example 5]
- hair growth (average grade): significantly reduces hair growth

Compound: O=C(N[C@H](c1ccccc1)c1ccccn1)[C@@H]1SCCN1S(=O)(=O)c1ccc(-c2ccccc2)cc1 [Example 3]
- hair regrowth (regrowth score, FIG. 1): inhibited hair regrowth
- hair growth (average grade): significantly reduces hair growth
